PMC5428509, “Irreversible inhibition of BTK kinase by a novel highly selective inhibitor CHMFL-BTK-11 suppresses inflammatory response in rheumatoid arthritis model” (Scientific Reports, 2017)

Legend:
Assay in all cases: biochemical
Parameters in all cases: KinomeScan competition binding panel (DiscoveRx), percent of control at 1 uM
Conditions in all cases: read-out: Percent Control
LIMK1 = LIMK1 (Homo sapiens, UniProt P53667)
Procedure, shortened: (§1)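 Selectivity profiled across 456 kinases/mutants by KinomeScan binding technology.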

MAP3K3 = MAP3K3 (Homo sapiens, UniProt Q99759)
Procedure, shortened: as §1

CSNK1E = CSNK1E (Homo sapiens, UniProt P49674)
Sequence of CSNK1E (P49674 whole entry): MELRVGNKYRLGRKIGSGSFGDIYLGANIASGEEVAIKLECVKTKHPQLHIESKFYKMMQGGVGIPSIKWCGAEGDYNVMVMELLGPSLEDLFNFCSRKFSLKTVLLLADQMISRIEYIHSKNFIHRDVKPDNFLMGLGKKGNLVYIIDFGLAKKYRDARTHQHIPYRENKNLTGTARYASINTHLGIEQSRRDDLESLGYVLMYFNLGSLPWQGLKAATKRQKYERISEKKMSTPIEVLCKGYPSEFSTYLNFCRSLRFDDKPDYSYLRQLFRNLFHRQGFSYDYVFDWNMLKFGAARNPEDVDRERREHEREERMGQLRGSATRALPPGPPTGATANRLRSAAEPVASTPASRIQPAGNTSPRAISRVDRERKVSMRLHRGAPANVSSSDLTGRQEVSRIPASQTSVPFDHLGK
Procedure, shortened: as §1

PRKD2 = PRKD2 (Homo sapiens, UniProt Q9BZL6)
Procedure, shortened: as §1

PRKCI = PRKCI (Homo sapiens, UniProt P41743)
Procedure, shortened: as §1

CDK5 = CDK5 (Homo sapiens, UniProt Q00535)
Procedure, shortened: as §1

PDGFRA = PDGFRA (Homo sapiens, UniProt P16234)
Procedure, shortened: as §1

SRPK2 = SRPK2 (Homo sapiens, UniProt P78362)
Procedure, shortened: as §1

CAMK2A = CAMK2A (Homo sapiens, UniProt Q9UQM7)
Sequence of CAMK2A (Q9UQM7 whole entry): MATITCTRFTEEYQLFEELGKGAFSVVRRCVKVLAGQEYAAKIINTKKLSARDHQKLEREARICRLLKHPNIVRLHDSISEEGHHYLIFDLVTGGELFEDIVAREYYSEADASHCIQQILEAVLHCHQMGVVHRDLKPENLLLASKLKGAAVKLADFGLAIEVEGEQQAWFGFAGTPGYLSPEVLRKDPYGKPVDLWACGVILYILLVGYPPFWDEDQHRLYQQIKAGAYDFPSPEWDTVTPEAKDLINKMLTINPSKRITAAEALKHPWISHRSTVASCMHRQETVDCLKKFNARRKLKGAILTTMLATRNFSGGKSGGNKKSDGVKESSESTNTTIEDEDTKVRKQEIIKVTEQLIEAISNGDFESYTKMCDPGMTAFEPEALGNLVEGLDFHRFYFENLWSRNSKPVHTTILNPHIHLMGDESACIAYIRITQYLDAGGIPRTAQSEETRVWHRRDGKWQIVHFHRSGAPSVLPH
Procedure, shortened: as §1

NEK11 = NEK11 (Homo sapiens, UniProt Q8NG66)
Procedure, shortened: as §1

MAPKAPK2 = MAPKAPK2 (Homo sapiens, UniProt P49137)
Sequence of MAPKAPK2 (P49137 whole entry): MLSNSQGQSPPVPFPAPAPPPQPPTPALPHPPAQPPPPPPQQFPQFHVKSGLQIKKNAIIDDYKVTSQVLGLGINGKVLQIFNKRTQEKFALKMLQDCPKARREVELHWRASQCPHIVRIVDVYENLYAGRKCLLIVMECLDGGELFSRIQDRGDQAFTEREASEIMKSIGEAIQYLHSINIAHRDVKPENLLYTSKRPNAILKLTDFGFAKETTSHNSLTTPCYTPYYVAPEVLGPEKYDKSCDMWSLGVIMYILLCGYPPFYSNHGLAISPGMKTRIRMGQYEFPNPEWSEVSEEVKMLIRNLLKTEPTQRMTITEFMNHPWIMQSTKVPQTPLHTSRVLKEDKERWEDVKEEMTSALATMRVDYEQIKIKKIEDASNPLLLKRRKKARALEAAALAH
Procedure, shortened: as §1

CAMK4 = CAMK4 (Homo sapiens, UniProt Q16566)
Sequence of CAMK4 (Q16566 whole entry): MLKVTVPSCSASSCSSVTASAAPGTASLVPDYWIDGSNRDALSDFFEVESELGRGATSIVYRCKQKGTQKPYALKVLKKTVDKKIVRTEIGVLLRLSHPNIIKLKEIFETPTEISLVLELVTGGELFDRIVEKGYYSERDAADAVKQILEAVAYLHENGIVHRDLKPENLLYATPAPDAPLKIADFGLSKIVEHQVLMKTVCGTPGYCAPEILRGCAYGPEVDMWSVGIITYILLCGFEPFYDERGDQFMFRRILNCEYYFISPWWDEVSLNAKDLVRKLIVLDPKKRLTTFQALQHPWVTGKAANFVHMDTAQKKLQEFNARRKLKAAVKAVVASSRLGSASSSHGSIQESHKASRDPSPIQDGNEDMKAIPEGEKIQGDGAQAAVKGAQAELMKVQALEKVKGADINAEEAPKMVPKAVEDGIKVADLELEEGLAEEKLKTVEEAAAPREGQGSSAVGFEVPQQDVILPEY
Procedure, shortened: as §1

[1] = molecular target: T1, JAK1(JH2domain-pseudokinase) (Homo sapiens, UniProt P23458)
T1 construct: JH2domain-pseudokinase
T1 sequence (P23458 whole entry): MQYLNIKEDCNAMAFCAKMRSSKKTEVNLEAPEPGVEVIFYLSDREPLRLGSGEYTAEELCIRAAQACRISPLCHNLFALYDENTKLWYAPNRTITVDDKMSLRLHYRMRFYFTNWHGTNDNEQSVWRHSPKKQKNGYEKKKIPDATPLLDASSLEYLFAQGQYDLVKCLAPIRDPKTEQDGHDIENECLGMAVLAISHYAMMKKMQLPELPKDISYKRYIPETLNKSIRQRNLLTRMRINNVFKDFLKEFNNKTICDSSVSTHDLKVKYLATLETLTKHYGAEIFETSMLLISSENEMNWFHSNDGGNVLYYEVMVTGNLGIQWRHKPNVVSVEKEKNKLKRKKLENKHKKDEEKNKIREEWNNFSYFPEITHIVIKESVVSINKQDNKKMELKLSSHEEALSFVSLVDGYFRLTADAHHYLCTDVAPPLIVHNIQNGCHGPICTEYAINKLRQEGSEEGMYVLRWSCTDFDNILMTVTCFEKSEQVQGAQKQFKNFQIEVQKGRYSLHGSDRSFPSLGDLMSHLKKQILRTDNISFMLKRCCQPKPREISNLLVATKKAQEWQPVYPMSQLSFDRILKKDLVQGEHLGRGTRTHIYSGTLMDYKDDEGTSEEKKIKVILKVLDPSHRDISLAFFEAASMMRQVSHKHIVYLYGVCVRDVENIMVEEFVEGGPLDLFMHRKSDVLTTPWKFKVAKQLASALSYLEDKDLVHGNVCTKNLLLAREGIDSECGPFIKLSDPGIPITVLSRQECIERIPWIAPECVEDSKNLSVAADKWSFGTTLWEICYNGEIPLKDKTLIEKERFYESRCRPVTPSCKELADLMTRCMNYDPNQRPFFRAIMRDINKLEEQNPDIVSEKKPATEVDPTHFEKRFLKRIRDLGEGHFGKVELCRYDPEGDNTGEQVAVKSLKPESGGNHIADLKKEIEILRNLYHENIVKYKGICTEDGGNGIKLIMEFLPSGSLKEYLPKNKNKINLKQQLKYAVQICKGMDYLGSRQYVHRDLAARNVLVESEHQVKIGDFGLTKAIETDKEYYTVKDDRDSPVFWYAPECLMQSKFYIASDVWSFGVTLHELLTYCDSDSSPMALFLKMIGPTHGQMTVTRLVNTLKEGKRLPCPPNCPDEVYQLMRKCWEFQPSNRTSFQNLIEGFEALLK
Procedure, shortened: as §1

INSRR = INSRR (Homo sapiens, UniProt P14616)
Procedure, shortened: as §1

RET(M918T) = RET(M918T) (Homo sapiens, UniProt P07949, M918T)
Sequence of RET(M918T) (P07949 whole entry M918T): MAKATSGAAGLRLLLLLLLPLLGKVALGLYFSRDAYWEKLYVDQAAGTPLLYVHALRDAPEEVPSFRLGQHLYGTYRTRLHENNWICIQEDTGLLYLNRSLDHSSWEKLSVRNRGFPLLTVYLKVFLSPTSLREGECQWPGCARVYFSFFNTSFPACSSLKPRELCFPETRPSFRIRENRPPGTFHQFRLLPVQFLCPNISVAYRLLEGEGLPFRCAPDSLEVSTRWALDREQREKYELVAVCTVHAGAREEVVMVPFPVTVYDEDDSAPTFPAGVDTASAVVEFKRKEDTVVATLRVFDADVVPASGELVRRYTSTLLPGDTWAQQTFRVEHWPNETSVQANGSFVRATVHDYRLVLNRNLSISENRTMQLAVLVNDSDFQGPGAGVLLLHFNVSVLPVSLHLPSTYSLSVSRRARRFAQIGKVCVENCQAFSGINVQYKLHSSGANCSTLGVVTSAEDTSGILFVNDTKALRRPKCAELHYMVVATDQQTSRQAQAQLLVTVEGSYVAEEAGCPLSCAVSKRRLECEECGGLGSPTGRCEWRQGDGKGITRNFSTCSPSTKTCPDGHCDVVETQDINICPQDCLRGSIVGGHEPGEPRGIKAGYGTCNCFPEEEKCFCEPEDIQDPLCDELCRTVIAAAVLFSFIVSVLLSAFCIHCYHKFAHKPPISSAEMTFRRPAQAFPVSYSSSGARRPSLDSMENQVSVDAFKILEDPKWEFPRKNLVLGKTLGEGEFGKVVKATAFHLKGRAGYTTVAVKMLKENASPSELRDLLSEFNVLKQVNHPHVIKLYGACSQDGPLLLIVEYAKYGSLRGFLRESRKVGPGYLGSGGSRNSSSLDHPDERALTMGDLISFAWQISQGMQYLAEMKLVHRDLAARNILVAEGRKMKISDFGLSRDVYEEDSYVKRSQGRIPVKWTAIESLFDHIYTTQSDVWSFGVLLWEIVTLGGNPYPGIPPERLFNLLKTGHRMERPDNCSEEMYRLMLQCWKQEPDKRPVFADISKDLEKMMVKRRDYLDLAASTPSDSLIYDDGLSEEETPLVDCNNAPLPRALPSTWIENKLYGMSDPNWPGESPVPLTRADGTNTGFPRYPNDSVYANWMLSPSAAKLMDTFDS
Procedure, shortened: as §1

FLT4 = FLT4 (Homo sapiens, UniProt P35916)
Procedure, shortened: as §1

FLT3-autoinhibited = FLT3-autoinhibited (Homo sapiens, UniProt P36888)
Procedure, shortened: as §1

[2] = molecular target: T2, RPS6KA4(Kin.Dom.2-C-terminal) (Homo sapiens, UniProt O75676)
T2 construct: Kin.Dom.2-C-terminal
T2 sequence (O75676 whole entry): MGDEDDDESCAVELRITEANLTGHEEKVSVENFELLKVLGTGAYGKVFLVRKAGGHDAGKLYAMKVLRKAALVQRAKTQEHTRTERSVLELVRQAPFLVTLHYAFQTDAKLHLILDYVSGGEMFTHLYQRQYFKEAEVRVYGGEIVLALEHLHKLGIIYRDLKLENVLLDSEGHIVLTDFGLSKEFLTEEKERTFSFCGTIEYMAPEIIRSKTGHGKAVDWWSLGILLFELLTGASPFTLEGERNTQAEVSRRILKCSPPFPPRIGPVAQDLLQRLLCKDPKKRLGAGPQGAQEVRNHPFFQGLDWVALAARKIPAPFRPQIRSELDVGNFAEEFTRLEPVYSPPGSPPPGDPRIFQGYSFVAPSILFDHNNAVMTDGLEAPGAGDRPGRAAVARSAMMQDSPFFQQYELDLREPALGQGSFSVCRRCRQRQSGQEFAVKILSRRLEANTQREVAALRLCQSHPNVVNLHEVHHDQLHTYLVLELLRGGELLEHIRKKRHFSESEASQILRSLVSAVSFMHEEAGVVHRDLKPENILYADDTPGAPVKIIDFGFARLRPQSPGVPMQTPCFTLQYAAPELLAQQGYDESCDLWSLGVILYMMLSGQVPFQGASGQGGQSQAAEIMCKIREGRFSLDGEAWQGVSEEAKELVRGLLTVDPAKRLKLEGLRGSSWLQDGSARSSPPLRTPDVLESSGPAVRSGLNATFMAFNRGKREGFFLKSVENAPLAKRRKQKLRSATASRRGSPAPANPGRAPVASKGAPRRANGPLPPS
Procedure, shortened: as §1

SIK2 = SIK2 (Homo sapiens, UniProt Q9H0K1)
Procedure, shortened: as §1

MAP4K2 = MAP4K2 (Homo sapiens, UniProt Q12851)
Procedure, shortened: as §1

HASPIN = HASPIN (Homo sapiens, UniProt Q8TF76)
Procedure, shortened: as §1

FLT3(N841I) = FLT3(N841I) (Homo sapiens, UniProt P36888, N841I)
Procedure, shortened: as §1

CDKL1 = CDKL1 (Homo sapiens, UniProt Q00532)
Procedure, shortened: as §1

PIK4CB = molecular target: T3, PIK4CB (Homo sapiens, UniProt Q9UBF8)
T3 construct: gene PI4KB
Procedure, shortened: as §1

JNK2 = molecular target: T4, JNK2 (Homo sapiens, UniProt P45984)
T4 construct: gene MAPK9
Procedure, shortened: as §1

C=CC(=O)Nc1cc(-n2c(=O)ccc3cnc4ccc(-n5cccn5)cc4c32)ccc1C [CHMFL-BTK-11]
remaining binding at 1 µM (LIMK1): 100%
remaining binding at 1 µM (MAP3K3): 100%
remaining binding at 1 µM (CSNK1E): 100%
remaining binding at 1 µM (PRKD2): 100%
remaining binding at 1 µM (PRKCI): 69%
remaining binding at 1 µM (CDK5): 100%
remaining binding at 1 µM (PDGFRA): 100%
remaining binding at 1 µM (SRPK2): 100%
remaining binding at 1 µM (CAMK2A): 100%
remaining binding at 1 µM (NEK11): 96%
remaining binding at 1 µM (MAPKAPK2): 99%
remaining binding at 1 µM (CAMK4): 91%
remaining binding at 1 µM [1]: 82%
remaining binding at 1 µM (INSRR): 100%
remaining binding at 1 µM (RET(M918T)): 100%
remaining binding at 1 µM (FLT4): 100%
remaining binding at 1 µM (FLT3-autoinhibited): 100%
remaining binding at 1 µM [2]: 100%
remaining binding at 1 µM (SIK2): 98%
remaining binding at 1 µM (MAP4K2): 98%
remaining binding at 1 µM (HASPIN): 59%
remaining binding at 1 µM (FLT3(N841I)): 100%
remaining binding at 1 µM (CDKL1): 93%
remaining binding at 1 µM (PIK4CB): 100%
remaining binding at 1 µM (JNK2): 100%
